Experimental data published in US4562287A, “2-(4-Biphenylyl)-4-hexenoic acid and derivatives thereof having anti-inflammatory activity” (priority 1983, dated 1985).

How the values were obtained:
[1] = tested on: Carragenine edema; assay: Edema induced by different substances: carragenine (Table 3); type: in vivo
From the text: (§1) |Edema induced by different substances.

[2] = tested on: Serotonin edema; assay: Edema induced by different substances: serotonin (Table 3); type: in vivo
From the text: as §1

[3] = tested on: Yeast edema; assay: Edema induced by different substances: yeast (Table 3); type: in vivo
From the text: |Edema induced by different substances. | % edema inhibition

[4] = tested on: Dextrose edema; assay: Edema induced by different substances: dextrose (Table 3); type: in vivo
From the text: as §1

[5] = tested on: Carragenine induced edema; assay: Carragenine induced edema, first test (Table 2); type: in vivo
From the text: |ANTI-INFLAMMATORY ACTIVITY. |Carragenine induced edema, first test.

[6] = tested on: Kaolin edema; assay: Edema induced by different substances: kaolin (Table 3); type: in vivo
From the text: as §1

[7] = tested on: capillary permeability (Dextran); assay: Effect on the capillary permeability, dextran; type: in vivo; conditions: 200 mg/Kg p.o., checks 14.83, 200 mg/kg
From the text: (§2) |Effect on the capillary permeability

[8] = tested on: capillary permeability (Serotonin); conditions: 200 mg/Kg p.o., checks 18.16
[9] = tested on: Cotton-pellets induced granuloma; assay: Cotton-pellets induced granuloma; type: in vivo; conditions: 200 mg/Kg p.o.
From the text: | Cotton-pellets induced granuloma.

[10] = tested on: capillary permeability (Histamine); assay: Effect on the capillary permeability, histamine; type: in vivo; conditions: 200 mg/Kg p.o., checks 21.33, 200 mg/kg
From the text: as §2

[11] = in vivo; conditions: po, rat, p.o., read-out: DL50 (the source's name)
[12] = tested on: Carragenine induced edema; assay: Activity on carragenine induced edema (Table 9); type: in vivo
From the text: |Activity on carragenine induced edema.

[13] = tested on: Carragenine induced edema; assay: Anti-inflammatory activity on carragenine induced edema (Table 11); type: in vivo; conditions: 50 mg/Kg p.o.

With CCCCC1C(=O)N(c2ccccc2)N(c2ccccc2)C1=O [PHENYL-BUTAZONE, phenylbutazone, reference compound] the “% edema inhibition” value ([1]; 50 mg/Kg p.o.) was 13%, the “% edema inhibition” value ([1]; 100 mg/Kg p.o.) was 32% and the “% edema inhibition” value ([1]; 200 mg/Kg p.o.) was 61%. The “% edema inhibition” value ([2]; 50 mg/Kg p.o.) was 24%, the “% edema inhibition” value ([2]; 100 mg/Kg p.o.) was 12% and the “% edema inhibition” value ([2]; 200 mg/Kg p.o.) was 25%. For the same molecule, the “% edema inhibition” value ([3]; 50 mg/Kg p.o.) was 7%, the “% edema inhibition” value ([3]; 100 mg/Kg p.o.) was 23% and the “% edema inhibition” value ([3]; 200 mg/Kg p.o.) was 18%. For the same molecule, the “% edema inhibition” value ([4]; 50 mg/Kg p.o.) was 0%, the “% edema inhibition” value ([4]; 100 mg/Kg p.o.) was 0% and the “% edema inhibition” value ([4]; 200 mg/Kg p.o.) was 18%. For the same molecule, the “% inhibition” value ([5]; 75 mg/Kg p.o.) was 43%, the “% inhibition” value ([5]; 150 mg/Kg p.o.) was 46% and the “% edema inhibition” value ([6]; 50 mg/Kg p.o.) was 41%. For the same molecule, the “% edema inhibition” value ([6]; 100 mg/Kg p.o.) was 40% and the “% edema inhibition” value ([6]; 200 mg/Kg p.o.) was 53%.

With CC=CCC(C(=O)O)c1ccc(-c2ccccc2)cc1 (single isomer, unassigned; (-)) [SCR 156, (-) 2-(4-biphenylyl)-4-hexenoic acid] the “Effect on the capillary permeability, .0. m.micron” value (“Effect” for short) [7] was 13.58 m.micron, the “Effect” value [8] was 16.43 m.micron and the “% edema inhibition” value ([1]; 50 mg/Kg p.o., 50 mg/kg) was 9%. The “% edema inhibition” value ([1]; 100 mg/Kg p.o., 100 mg/kg) was 31%, the “% edema inhibition” value ([1]; 200 mg/Kg p.o., 200 mg/kg) was 23% and the “% edema inhibition” value ([2]; 50 mg/Kg p.o., 50 mg/kg) was 0%. The “% edema inhibition” value ([2]; 100 mg/Kg p.o., 100 mg/kg) was 13%, the “% edema inhibition” value ([2]; 200 mg/Kg p.o., 200 mg/kg) was 0% and the “% edema inhibition” value ([3]; 50 mg/Kg p.o.) was 13%. For the same molecule, the “% edema inhibition” value ([3]; 100 mg/Kg p.o., 100 mg/kg) was 5%, the “% edema inhibition” value ([3]; 200 mg/Kg p.o., 200 mg/kg) was 7% and the “% inhibition” value [9] was 11%. For the same molecule, the “Effect” value [10] was 21.00 m.micron, the “% edema inhibition” value ([4]; 50 mg/Kg p.o., 50 mg/kg) was 14% and the “% edema inhibition” value ([4]; 100 mg/Kg p.o., 100 mg/kg) was 5%. For the same molecule, the “% edema inhibition” value ([4]; 200 mg/Kg p.o., 200 mg/kg) was 12%, the “% edema inhibition” value ([6]; 50 mg/Kg p.o., 50 mg/kg) was 32% and the “% edema inhibition” value ([6]; 100 mg/Kg p.o., 100 mg/kg) was 26%. The “% edema inhibition” value ([6]; 200 mg/Kg p.o., 200 mg/kg) was 28%.

For CC=CCC(C(=O)O)c1ccc(-c2ccc(Cl)cc2)cc1 (racemic) [SCR 158, 2-[4-biphenylyl-(4' chloro)]4-hexenoic acid], the LD50 [11] was 940 mg/kg, the Inhibition % ([12]; 56 mg/Kg p.o.) was 0% and the Inhibition % ([12]; 85 mg/Kg p.o.) was 16%. For the same molecule, the Inhibition % ([12]; 127 mg/Kg p.o.) was 14%.

In the case of CC(=O)Oc1ccccc1C(=O)O [Acetylsalicylic acid, reference compound], the “% inhibition” value [13] is reported as 23%.
